According to PubChem BioAssay AID2060335 (Molecular Pharmacology Branch, DTP, NCI, 2025):

Tested on: DU-145 multicell spheroids with HUVEC/MSC, viability
Test: Anticancer human tumor DU-145 cell line growth inhibition [IpAb];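 also: spheroids exposed to agents for seven days before measurement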;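 as to viability, T/C: percent of DMSO vehicle control viability so 100% = untreated level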
Conditions: for IC50: curve of first compound; for viability, T/C: stronger effect = lower value
Excerpt: Combinatorial screen of targeted agents with ipatasertib and abemaciclib in multi-cell type tumor spheroids
A high-throughput screen of multi-cell type tumor spheroids was designed to identify active combinations of targeted small molecules and ipatasertib or abemaciclib. Complex spheroids include a stromal component modeled by human endothelial cells (HUVEC) and fibroblasts modeled by human mesenchymal stem cells (MSCs). The concentration ranges selected for each drug and investigational agent were based upon clinically achievable concentrations if the clinical Cmax of the agent was known.
Compounds. The drugs and investigational agents: ipatasertib (NSC767898), abemaciclib(NSC768073), selumetinib (NSC741078), trametinib (758246), adavosertib (NSC754352), everolimus (NSC733504), sapanisertib (NSC764658), vemurafenib (NSC761431), venetoclax (NSC766270), copanlisib (NSC809693), apelisib (NSC765974), palbociblib (NSC758247), vemurafenib (NSC761431), dabrafenib (NSC764134), ravoxertinib (NSC781343), BMS-387032 (NSC767048), sotorasib (NSC818433), talazoparib (NSC767125) and afursertib (NSC778305), were obtained from the National Cancer Institute (NCI) Developmental Therapeutics Program Chemical Repository. The FDA-approved anticancer drug set is available from the NCI Developmental Therapeutics Program. […] The stock solutions were prepared in dimethyl sulfoxide (DMSO, Sigma-Aldrich, St. Louis, MO, cat. D2650) at 800-fold the tested concentration and stored at -70 degrees C prior to their use. All drugs and investigational agents were tested over a range starting from a high concentration at or near the clinical Cmax and decreasing in half-log increments. If the clinical Cmax for an agent had not been determined, the highest concentration tested was 10 microM.
NCI60 Cell Culture. NCI60 cell lines were obtained from the NCI Developmental Therapeutics Program Tumor Repository. For each lot of cells, the Repository performed Applied Biosystems AmpFLSTR Identifiler testing with PCR amplification to confirm consistency with the published Identifier STR profile for each cell line. Cells were kept in continuous culture for no more than 20 passages. The optimal seeding densities for each of the cell lines at each time point assessed were determined prior to performing the concentration response studies. Briefly, the NCI60 human tumor lines were grown as monolayers in RPMI 1640 medium supplemented with 10% FBS and 2 mmol/L L-glutamine.
An additional 9 lines were from the NCI60 cell line panel including MDA-MB-231 breast carcinoma, MDA-MB-468 breast carcinoma, MCF7 breast carcinoma, Hs578T breast carcinoma, MALME-3M melanoma, SK-MEL-2 melanoma, SK-OV-3 ovarian carcinoma, DU-145 prostate carcinoma, PC-3 prostate carcinoma, all cell lines along with major genetic alterations are listed on Table 2. Pooled donor human umbilical vein endothelial cells (HUVEC, Lonza, cat. CC-2519) and human mesenchymal stem cells (hMSC, Lonza, cat. PT-2501) were purchased from Lonza (Walkersville, MD).
PDMR cell lines were grown in complete medium (DC medium): Dulbecco's modified Eagle's medium (DMEM)/F12 supplemented with 5% fetal bovine serum (FBS), 2 mM L-glutamine, 100 U/mL penicillin and 100 µg/ml streptomycin, 0.4 µg/ml hydrocortisone, 10 ng/ml epidermal growth factor (EGF) recombinant human protein, 24 µg/mL adenine, and 0.1 mg/mL primocin. During culture from frozen stock vials, PDMR cells were cultured in the same medium containing 10 µM Y-27632 (see Table 3). The PDCs were cultured in complete DMEM/F12 media without 10 microM Y-27632 dihydrochloride for at least two passages prior to the screen. The pooled donor HUVEC and hMSC were cultured in endothelial cell growth medium 2 (PromoCell, Heidelberg, Germany, cat. C-22011) and mesenchymal stem cell growth medium 2 (PromoCell, cat. C-28009), respectively. For all experiments, HUVEC and hMSC were used at passages </=5.
[…]

[1] = second compound 0.1 µM, first compound 0.00316 µM
[2] = second compound 0.1 µM, first compound 0.01 µM
[3] = second compound 0.1 µM, first compound 0.0316 µM
[4] = second compound 0.1 µM, first compound 0.1 µM
[5] = second compound 0.316 µM, first compound 0.00316 µM
[6] = second compound 0.316 µM, first compound 0.01 µM
[7] = second compound 0.316 µM, first compound 0.0316 µM
[8] = second compound 0.316 µM, first compound 0.1 µM
[9] = second compound 1 µM, first compound 0.00316 µM
[10] = second compound 1 µM, first compound 0.01 µM
[11] = second compound 1 µM, first compound 0.0316 µM
[12] = second compound 1 µM, first compound 0.1 µM
[13] = second compound 3.16 µM, first compound 0.00316 µM
[14] = second compound 3.16 µM, first compound 0.01 µM
[15] = second compound 3.16 µM, first compound 0.0316 µM
[16] = second compound 3.16 µM, first compound 0.1 µM
[17] = second compound 10 µM, first compound 0.00316 µM
[18] = second compound 10 µM, first compound 0.01 µM
[19] = second compound 10 µM, first compound 0.0316 µM
[20] = second compound 10 µM, first compound 0.1 µM
[21] = second compound 0.1 µM, first compound 0.316 µM
[22] = second compound 0.1 µM, first compound 1 µM
[23] = second compound 0.1 µM, first compound 3.16 µM
[24] = second compound 0.1 µM, first compound 10 µM
[25] = second compound 0.316 µM, first compound 0.316 µM
[26] = second compound 0.316 µM, first compound 1 µM
[27] = second compound 0.316 µM, first compound 3.16 µM
[28] = second compound 0.316 µM, first compound 10 µM
[29] = second compound 1 µM, first compound 0.316 µM
[30] = second compound 1 µM, first compound 1 µM
[31] = second compound 1 µM, first compound 3.16 µM
[32] = second compound 1 µM, first compound 10 µM
[33] = second compound 3.16 µM, first compound 0.316 µM
[34] = second compound 3.16 µM, first compound 1 µM
[35] = second compound 3.16 µM, first compound 3.16 µM
[36] = second compound 3.16 µM, first compound 10 µM
[37] = second compound 10 µM, first compound 0.316 µM
[38] = second compound 10 µM, first compound 1 µM
[39] = second compound 10 µM, first compound 3.16 µM
[40] = second compound 10 µM, first compound 10 µM

| SMILES | IC50 (second compound 0.1 µM) [nM] | IC50 (second compound 0.316 µM) [nM] | IC50 (second compound 1 µM) [nM] | IC50 (second compound 3.16 µM) [nM] | IC50 (second compound 10 µM) [nM] | viability, T/C [3] [%] | viability, T/C [4] [%] | viability, T/C [7] [%] | viability, T/C [8] [%] | viability, T/C [11] [%] | viability, T/C [12] [%] | viability, T/C [15] [%] | viability, T/C [16] [%] | viability, T/C [19] [%] | viability, T/C [20] [%] | viability, T/C [21] [%] | viability, T/C [22] [%] | viability, T/C [25] [%] | viability, T/C [26] [%] | viability, T/C [29] [%] | also measured |
| --- | --- | --- | --- | --- | --- | --- | --- | --- | --- | --- | --- | --- | --- | --- | --- | --- | --- | --- | --- | --- | --- |
| CC(C)n1nc(-c2ccc3oc(N)nc3c2)c2c(N)ncnc21 + CC(C)NCC(C(=O)N1CCN(c2ncnc3c2C(C)CC3O)CC1)c1ccc(Cl)cc1 | 0.905 | < 0.316 | < 0.316 | < 0.316 | < 0.316 | 12.2 | 9.34 | 9.74 | 7.89 | 7.4 | 6.44 | 6.17 | 5.92 | 5.82 | 5.09 |  |  |  |  |  | viability, T/C (second compound 0.1 µM, first compound 0.000316 µM): 64.2%; viability, T/C (second compound 0.1 µM, first compound 0.001 µM): 48.1%; viability, T/C [1]: 32.4%; viability, T/C [2]: 18.1%; viability, T/C (second compound 0.316 µM, first compound 0.000316 µM): 49.2%; viability, T/C (second compound 0.316 µM, first compound 0.001 µM): 32.3%; viability, T/C [5]: 22.9%; viability, T/C [6]: 13.5%; viability, T/C (second compound 1 µM, first compound 0.000316 µM): 29%; viability, T/C (second compound 1 µM, first compound 0.001 µM): 23.1%; viability, T/C [9]: 14%; viability, T/C [10]: 8.57%; viability, T/C (second compound 3.16 µM, first compound 0.000316 µM): 18.6%; viability, T/C (second compound 3.16 µM, first compound 0.001 µM): 14.2%; viability, T/C [13]: 9.92%; viability, T/C [14]: 6.7%; viability, T/C (second compound 10 µM, first compound 0.000316 µM): 14.1%; viability, T/C (second compound 10 µM, first compound 0.001 µM): 14.2%; viability, T/C [17]: 7.9%; viability, T/C [18]: 6.04% |
| CC1(C)CCC(CN2CCN(c3ccc(C(=O)NS(=O)(=O)c4ccc(NCC5CCOCC5)c([N+](=O)[O-])c4)c(Oc4cnc5[nH]ccc5c4)c3)CC2)=C(c2ccc(Cl)cc2)C1 + CC(C)NCC(C(=O)N1CCN(c2ncnc3c2C(C)CC3O)CC1)c1ccc(Cl)cc1 | 3450 | 497 | < 31.6 | < 31.6 | < 31.6 | 86.7 | 87.5 | 58.1 | 53.6 | 30.5 | 29.4 | 23.1 | 20.6 | 19.1 | 19.2 | 78.1 | 74.9 | 50.6 | 45.2 | 30.9 | viability, T/C [23]: 53.3%; viability, T/C [24]: 11.5%; viability, T/C [27]: 37%; viability, T/C [28]: 8.7%; viability, T/C [30]: 28.6%; viability, T/C [31]: 27.1%; viability, T/C [32]: 10.4%; viability, T/C [33]: 20.4%; viability, T/C [34]: 19.6%; viability, T/C [35]: 19.9%; viability, T/C [36]: 5.88%; viability, T/C [37]: 18.4%; viability, T/C [38]: 16.9%; viability, T/C [39]: 15.9%; viability, T/C [40]: 5.38% |
| CCCS(=O)(=O)Nc1ccc(F)c(C(=O)c2c[nH]c3ncc(-c4ccc(Cl)cc4)cc23)c1F + CC(C)NCC(C(=O)N1CCN(c2ncnc3c2C(C)CC3O)CC1)c1ccc(Cl)cc1 | > 10000 | > 10000 | < 31.6 | < 31.6 | < 31.6 | 88.2 | 91.3 | 53.9 | 64.1 | 33.1 | 31.8 | 22.3 | 25.9 | 19.6 | 20.1 | 86.6 | 96.3 | 61.4 | 76.4 | 37.7 | viability, T/C [23]: 96.7%; viability, T/C [24]: 68.2%; viability, T/C [27]: 66.8%; viability, T/C [28]: 43.6%; viability, T/C [30]: 41.2%; viability, T/C [31]: 46.3%; viability, T/C [32]: 29.9%; viability, T/C [33]: 24.4%; viability, T/C [34]: 22.4%; viability, T/C [35]: 23.6%; viability, T/C [36]: 20.3%; viability, T/C [37]: 19.1%; viability, T/C [38]: 19.7%; viability, T/C [39]: 18.3%; viability, T/C [40]: 14.2% |
| COc1c(OCCCN2CCOCC2)ccc2c3n(c(=NC(=O)c4cnc(N)nc4)nc12)CCN3 + CC(C)NCC(C(=O)N1CCN(c2ncnc3c2C(C)CC3O)CC1)c1ccc(Cl)cc1 | 6.79 | < 3.16 | < 3.16 | < 3.16 | < 3.16 | 27.6 | 12.7 | 18.8 | 11.6 | 14.8 | 10 | 12.1 | 9.46 | 10.5 | 8.52 | 9.75 | 10.5 | 9.1 | 11.2 | 8.83 | viability, T/C [1]: 65.3%; viability, T/C [2]: 41.2%; viability, T/C [5]: 41.5%; viability, T/C [6]: 28.2%; viability, T/C [9]: 25.4%; viability, T/C [10]: 22%; viability, T/C [30]: 10.2%; viability, T/C [13]: 18.7%; viability, T/C [14]: 14.6%; viability, T/C [33]: 8.26%; viability, T/C [34]: 9.07%; viability, T/C [17]: 14.6%; viability, T/C [18]: 12.5%; viability, T/C [37]: 7.9%; viability, T/C [38]: 9.09% |
